The text below walks through data of patent publication US12054495B2, “Substituted macrocyclic compounds and related methods of treatment” (Alkermes, Inc., priority 2019, dated 2024).

Where two headings read alike, the source gives them in different places.

For series [1] the following is noted: amide bond, HATU/DIEA.
The conditions of series [2]: from CC(C)(C)OC(=O)N[C@H]1CCCN[C@H]1COC1CCC(c2ccccc2CCC(=O)O)CC1; amide bond; 13-membered ring; HATU/DIEA; MeCN; 0.36 mM; 2.0 h.
A further series has as its system Sprague-Dawley rats. In words: Assessment of wake promotion in Sprague-Dawley rats (EEG/EMG). The conditions noted are these: Rattus norvegicus; PO, 3 mpk, male Sprague-Dawley rats, dosed at ZT5, 6-hour post-dose period; read-out: Mean cortical activation time (% vehicle treatment). The series is classed as in vivo. On the procedure: Wake promotion was assessed using electroencephalography (EEG) and electromyography (EMG) in adult male Sprague-Dawley rats (350-600 g). All rats (Charles River Laboratories, Raleigh, NC, USA) were intraperitoneally implanted with telemetry devices (F50-EEE, Data Sciences International Inc., M/N, USA) under isoflurane anesthesia. For EEG, stainless steel screws were implanted over frontal cortex and parietal cortex, and reference screws were placed over cerebellum. Additionally, an electrode was placed in neck muscle for EMG. Rats were given carprofen post-surgery and underwent a 7 to 10-day recovery period. Rats habituated to the experimental room for 7 days and were maintained on a 12-hour light-dark cycle.
EEG and EMG data were recorded using the DSI telemetry system and Ponemah software (Data Sciences International Inc., MN, USA). Sleep-wake stages were scored both manually and with Somnivore, a supervised machine learning software platform, in 10 second epocs. Records were visually inspected as needed post-processing.
All test compounds were dissolved in 5% DMSO and suspended in 95% saline with 0.5% methylcellulose and 0.5% tween. […] Unless otherwise indicated, all compounds were dosed orally. Recordings for each rat were initiated immediately after dosing and lasted for 6 hours post-dose.
Two key endpoints include wakefulness time and cortical activation time. Wakefulness time is derived from the sleep-wake stage analysis. Cortical activation time is based on the duration in which frontal gamma oscillatory activity (30-100 Hz), a key feature of wakefulness, was elevated relative to a pre-treatment baseline. Mean cortical activation time was computed relative to vehicle treatment for the 6-hour post-dose period.

Another series has as its system MDR1. Briefly: MDCK-MDR1 permeability assay. Conditions: dog; for Papp A→B at 2 h, 3 μM: MDCK-MDR1, MDCK-MDR1 cells, apical to basolateral, 3 μM test compound, 2 hours at 37 degrees C; for efflux ratio at 2 h, 3 μM: MDCK-MDR1, Papp (basolateral to apical) divided by Papp (apical to basolateral), MDCK-MDR1 cells, read-out: Efflux ratio (ER). It is filed as in vitro ADME. A digest of the protocol: (§1)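 Bidirectional transport across MDCK-MDR1 monolayers with test compound at 3 μM in HBSS, Lucifer Yellow 100 μM co-dosed as integrity marker; 2 h at 37 °C, donor and receiver quantified by LC-MS/MS. Papp = dQ/dt × 1/(A×C0); efflux ratio = Papp(B→A)/Papp(A→B), ER>2 taken as active transport.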

Another series deals with human hepatocytes. In words: Hepatocytes stability assay (human hepatocytes). The series is classed as in vitro ADME. Conditions: for Extraction Ratio (ER): scaled hepatic clearance divided by liver blood flow, fu assumed unity. In a few lines: (§2)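 Cryopreserved pooled (50 donors, mixed gender) human hepatocytes at 1×10^6 cells/mL in Krebs-Henseleit buffer with 1 μM compound (0.1% DMSO), 37 degrees C, sampled 0–240 min. Parent depletion by LC-MS/MS; first-order fit gave T1/2 and CLint, scaled to hepatic clearance via well-stirred model (fu assumed 1); extraction ratio = CL,hep/liver blood flow.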

Series [3] is described as follows: Hepatocytes stability assay (human hepatocytes). The series is classed as in vitro ADME. Conditions: both sexes, cryopreserved hepatocytes, 1 μM test compound, 1×10^6 cell/mL, 37 degrees C, read-out: CLint (μL/min/million cells). A digest of the protocol: as §2
A further series concerns MDCK-MDR1 cells. Briefly: MDCK-MDR1 permeability assay. The series is classed as in vitro ADME. Conditions: MDCK-MDR1 cells; for Papp A→B (10^−6 cm/s): apical to basolateral, 3 μM test compound, 2 hours at 37 degrees C. In a few lines: as §1
Series [4] addresses T1, human orexin-2 receptor (OX2R) (Homo sapiens, UniProt O43614).
T1 construct: expressed in transfected cells
T1 sequence (O43614 1-444): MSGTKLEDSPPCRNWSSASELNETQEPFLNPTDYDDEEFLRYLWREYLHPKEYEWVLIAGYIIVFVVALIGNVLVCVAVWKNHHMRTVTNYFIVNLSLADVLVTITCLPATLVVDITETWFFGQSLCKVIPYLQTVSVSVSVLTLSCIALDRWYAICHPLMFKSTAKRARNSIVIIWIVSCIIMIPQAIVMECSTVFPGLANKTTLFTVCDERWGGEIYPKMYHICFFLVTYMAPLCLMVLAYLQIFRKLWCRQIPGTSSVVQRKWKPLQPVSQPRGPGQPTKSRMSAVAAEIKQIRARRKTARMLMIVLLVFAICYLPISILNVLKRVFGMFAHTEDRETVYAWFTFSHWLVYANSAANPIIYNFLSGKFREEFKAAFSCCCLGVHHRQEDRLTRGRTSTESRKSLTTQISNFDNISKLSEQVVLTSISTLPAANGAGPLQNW
In words: Human OX2R IP1 assay. The conditions noted are these: T-Rex CHO cells stably overexpressing human OX2R, IP1 accumulation, 1 hr at 37 degrees C; mean EC50; ∧ = racemic mixture. The series is classed as cell-based. In a few lines:
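Doxycycline-induced T-Rex CHO cells stably expressing human OX2R treated with compound 1 hr at 37 °C in LiCl-containing buffer, pH 7.4. IP1 accumulation quantified by HTRF competitive immunoassay; EC50 reported as mean ± S.E.M.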

Compound `CC(C)(C)OC(=O)N[C@H]1CCCN2C(=O)CCOc3ccccc3C3CCC(CC3)OC[C@@H]12` came in with a ring closure, yield after HPLC in series [1] (from CC(C)(C)OC(=O)N[C@H]1CCCN[C@H]1COC1CCC(c2ccccc2OCCC(=O)O)CC1, 14-membered ring, MeCN, 7.4 mM, 18.0 h) of 80.3%.

In the case of `CC(C)(C)OC(=O)N[C@H]1CCCN2C(=O)CCc3ccccc3C3CCC(CC3)OC[C@@H]12`, the ring closure, conversion in series [2] turned out to be 40%. This compound also yielded a ring closure, yield after HPLC in series [1] (from CC(C)(C)OC(=O)N[C@H]1CCCN[C@H]1COC1CCC(c2ccccc2CCC(=O)O)CC1, 13-membered ring, MeCN, 0.36 mM, 2.0 h) of 19%.

Take `CS(=O)(=O)N[C@H]1CCCN2C(=O)COc3ccccc3C3CCC(CC3)OCC12` (stereo partly shown) [Compound 2]: the response vs control in vivo at 3 mg/kg in the series on Sprague-Dawley rats is 190%. Besides, in the series with MDR1, the Papp A→B (in general, the apparent permeability from the apical to the basolateral side of a cell layer) at 2 h, 3 μM was found to be 8.9 nm/s and the efflux ratio at 2 h, 3 μM stood at 39. The “Extraction Ratio (ER)” value in the series on human hepatocytes is given as 0.67. For the same compound, in series [3], the hepatocyte CLint at 1 μM is 13 µL/min/1e6 cells.

`CS(=O)(=O)N[C@H]1CCN2C(=O)COc3ccccc3C3CCC(CC3)OCC12` (stereo partly shown) [Compound 7]: the response vs control in vivo at 3 mg/kg with Sprague-Dawley rats was 165%. In the series with MDR1, the Papp A→B at 2 h, 3 μM worked out at 140 nm/s and the efflux ratio at 2 h, 3 μM was determined as 2.2. For the same compound, the “Extraction Ratio (ER)” value with human hepatocytes came out at 0.78. For the same compound, the hepatocyte CLint at 1 μM in series [3] amounted to 24 µL/min/1e6 cells.

For `CS(=O)(=O)N[C@H]1CCCN2C(=O)COc3c(F)cc(F)cc3C3CCC(CC3)OCC12` (stereo partly shown) [Compound 12], in the series on Sprague-Dawley rats, the response vs control in vivo at 3 mg/kg stood at 236%. Also, in the series on MDR1, the Papp A→B at 2 h, 3 μM is 23 nm/s and the efflux ratio at 2 h, 3 μM was 6.2. In the series on human hepatocytes, the “Extraction Ratio (ER)” value is 0.66. In series [3], the hepatocyte CLint at 1 μM is 13 µL/min/1e6 cells.

Take `CS(=O)(=O)N[C@H]1CCCN2C(=O)COc3ncccc3C3CCC(CC3)OCC12` (stereo partly shown) [Compound 46]: the response vs control in vivo at 3 mg/kg in the series on Sprague-Dawley rats came to 157%. For the same compound, in the series on MDR1, the Papp A→B at 2 h, 3 μM amounted to 3.1 nm/s and the efflux ratio at 2 h, 3 μM turned out to be 58. Moreover, the “Extraction Ratio (ER)” value in the series on human hepatocytes amounted to 0.51. In addition, the hepatocyte CLint at 1 μM in series [3] came to 6.9 µL/min/1e6 cells.

With `CS(=O)(=O)N[C@H]1CCCN2C(=O)COc3ccc(Cl)cc3C3CCC(CC3)OCC12` (stereo partly shown) [Compound 51], the response vs control in vivo at 3 mg/kg in the series with Sprague-Dawley rats was found to be 166%. Moreover, in the series with MDR1, the Papp A→B at 2 h, 3 μM is 5.9 nm/s and the efflux ratio at 2 h, 3 μM is 21. The “Extraction Ratio (ER)” value in the series on human hepatocytes stood at 0.41. For the same compound, the hepatocyte CLint at 1 μM in series [3] came out at 4.6 µL/min/1e6 cells.

Regarding `CS(=O)(=O)N[C@H]1CCCN2C(=O)COc3nccnc3C3CCC(CC3)OCC12` (stereo partly shown) [Compound 55], the response vs control in vivo at 3 mg/kg in the series on Sprague-Dawley rats was found to be 145%. Besides, in the series with MDR1, the apparent permeability from apical to basolateral (Papp A→B) at 2 h, 3 μM worked out at 0.92 nm/s and the efflux ratio at 2 h, 3 μM came out at 77. Also, in the series with human hepatocytes, the “Extraction Ratio (ER)” value is less than 0.22. Moreover, the hepatocyte CLint at 1 μM in series [3] was less than 1.9 µL/min/1e6 cells.

Consider `CS(=O)(=O)N[C@H]1CCCN2C(=O)COc3nnccc3C3CCC(CC3)OCC12` (stereo partly shown) [Compound 56], for which, in the series with MDR1, the efflux ratio at 2 h, 3 μM amounted to 5.2. Further, the “Papp A→B (10^−6 cm/s)” value with MDCK-MDR1 cells was 0.13 10^−6 cm/s. Besides, in the series on human hepatocytes, the “Extraction Ratio (ER)” value is listed as less than 0.22. In series [3], the hepatocyte CLint at 1 μM is less than 1.9 µL/min/1e6 cells.

For `CS(=O)(=O)N[C@H]1CCCN2C(=O)COc3nnccc3[C@H]3CC[C@H](CC3)OC[C@@H]12` [Compound 66], the EC50 (usually the midpoint of the concentration-response curve) in series [4] was less than 0.1 µM. In addition, the “Papp A→B (10^−6 cm/s)” value with MDCK-MDR1 cells is <0.047 10^−6 cm/s. Further, in the series with MDCK-MDR1 cells (Papp (basolateral to apical) divided by Papp (apical to basolateral), 3 μM), the “Efflux ratio (ER)” value is listed as greater than 9.5. Also, in the series on human hepatocytes (1 μM test compound, 1×10^6 cell/mL, 37 degrees C), the “CLint (μL/min/million cells)” value is listed as less than 1.9 μL/min/million cells. Moreover, in the series with human hepatocytes, the “Extraction Ratio (ER)” value was less than 0.22.

In the case of “tert-butyl ((2^1S,2^4S,5^2R,5^3S)-6-oxo-3,11-dioxa-5(2,1)-piperidina-1(1,2)-benzena-2(1,4)-cyclohexanacycloundecaphane-5^3-yl)carbamate”, the ring closure, yield after HPLC in series [1] (16-membered ring, DMF/MeCN 1:2, 16.3 mM, 25.0 °C) came to 88.1%.
